Results published in patent US7291625B2, “Use of a vitamin combination for the treatment of pruritus and non-infective disorders involving itching and/or inflammation” (priority 1999, dated 2007).
Like-named read-outs stand apart in the source and are kept apart here.

Legend:
[1] = tested on: uremic pruritus and sine materia pruritus forms; experiment: Clinical experimentation: systemic niacin or niacinamide alone at pellagra dosage in pruritus forms; conditions: for effectiveness in combating the pruritus forms: systemic administration alone at pellagra dosage, uremic and sine materia pruritus
[2] = systemic, 2 to 6 g per day, therapy of hyperlipidemia; cited from earlier work
senile pruritus = experiment: Clinical case reports: senile pruritus; assay type: in vivo, human
Source text: (§1) It is advisable to take the medicament by the oral route, after the main meals, with abundant water (at least half a glass). In the event that the treatment is discontinued and the symptoms revert, it is necessary to start again from the 1st phase.
3rd case— subject with senile pruritus—The patient had been complaining for about 3 years of a diffused itching, which had become increasingly intense. At first, they consulted their physician, who addressed them to a dermatologist.
The patient was then treated by oral administration of 50 mg of nicotinamide+2.5 mg of riboflavin twice daily. […] Thereafter, the therapy was reduced to half the dosage, for 15 days a month.
4th case— subject with senile pruritus—The patient had been suffering for about 2 years and a half from a diffused continuous itching at the torso and on the upper and lower limbs.
The treatment was continued with half the dose for further 15 days and then it was finally discontinued.
The treatment with half the dose was continued for 15 days, and then it was discontinued.
3rd case— subject with senile pruritus—The patient had been suffering for about one year from a diffused itching. […] Thereafter, the diagnosis of senile itching was made.

anal and vulvar pruritus = experiment: Clinical case reports: anal and vulvar pruritus; assay type: in vivo, human
Source text: as §1
As a first attempt, a gastroenterologist had been consulted for the anal itching, and thereafter a gynaecologist had been consulted for the vulvar itching.
The treatment was continued for 12 more days, and then it was reduced to half the dosage, for 15 days a month.
Then, the patient was given a therapy with 50 mg of nicotinamide twice daily, by oral administration, after the main meals. […] The patient continued to take 50 mg of nicotinamide daily, after dinner, for 15 days, and then they discontinued the treatment.
The treatment was then continued for 15 more days, with half the dosage, and then finally discontinued.

uremic pruritus = experiment: Clinical case reports: uremic pruritus (renal dialysis, chronic renal failure or insufficiency); assay type: in vivo, human
Description: In the treatment of uremic subjects who currently undergo dialysis the protocol is the same as for the 1st phase above, but the continuation of the treatment with half the dose will take place starting after each dialysis treatment (also in this case, after the meal and with abundant water).
Thereafter, the patient was treated with 50 mg of nicotinamide+2.5 mg of riboflavin twice daily, by oral administration. […] The patient continued the same therapy for about 15 days, and thereafter the dosage was reduced to one-half, the administration occurring after the dialysis treatment. […]
Lastly, they underwent an additional 3 hours dialysis treatment each week, with carbon filter, for four weeks on end.
The treatment was started with 50 mg of nicotinamide twice daily, to be taken orally after the main meals. […] The patient continued to take 50 mg of nicotinamide after dinner for 15 more days, and then they took 50 mg of the same agent only on the day of the dialytic treatment. […]

[3] = tested on: uremic pruritus and sine materia pruritus forms; conditions: human, in vivo

Structure (SMILES): NC(=O)c1cccnc1 [nicotinamide]
- effectiveness in combating the pruritus forms [1]: not appreciably effective
- side effects of flushing and itching ([1]; systemic administration alone at the dosage used for prevention and therapy of pellagra): does not lead to the undesired side effects of flushing and itching
- adverse side effects at large doses [2]: adverse side effects, including gastrointestinal disturbances (such as abdominal pain and nausea) hepatotoxicity, and, above all, flushing
- pruritus after 40 days (senile pruritus; series 2 case 4: senile pruritus, 50 mg nicotinamide alone twice daily oral): pruritus was quite mild
- itching about 10 days after discontinuation (senile pruritus; series 2 case 4, nicotinamide alone): itching had started again to increase
- itching after 45 days (senile pruritus; series 3 case 3: senile pruritus, 50 mg nicotinamide alone twice daily oral): itching had only slightly decreased
- itching at subsequent monthly checks (senile pruritus; series 3 case 3, nicotinamide therapy continued): diffused moderate itching
- itching after 60 days (anal and vulvar pruritus; series 2 case 3: anal vulvar pruritus, 50 mg nicotinamide alone twice daily oral): itching was moderate
- itching 15 days after discontinuation (anal and vulvar pruritus; series 2 case 3, nicotinamide alone): itching started to increase again
- symptoms after 2 months (anal and vulvar pruritus; series 3 case 4: anal and vulvar pruritus, 50 mg nicotinamide alone twice daily oral): a decrease of the symptoms was detected
- itching at subsequent monthly checks (anal and vulvar pruritus; series 3 case 4, still taking 50 mg/day nicotinamide): still complained of a moderate itching
- pruritus after one month and a half (uremic pruritus; series 2 case 1: person on renal dialysis, 50 mg nicotinamide alone twice daily oral): pruritus had sensibly decreased
- itching at check-up after one month (uremic pruritus; series 2 case 1, nicotinamide alone, reduced to 50 mg on dialysis days): still complained of some moderate itching
- symptom after 45 days (uremic pruritus; series 2 case 2: person on renal dialysis, 50 mg nicotinamide alone twice daily oral): appreciable reduction of the symptom
- itching 15 days after discontinuation (uremic pruritus; series 2 case 2, nicotinamide alone): itching had started again to gradually increase
- itching after 35 days (uremic pruritus; series 2 case 5: chronic renal insufficiency, 50 mg nicotinamide alone twice daily oral): some moderate itching
- itching about 10 days after discontinuation (uremic pruritus; series 2 case 5, nicotinamide alone): itching had started to increase again
- itching after 65 days (uremic pruritus; series 3 case 1: person on renal dialysis three times weekly, 50 mg nicotinamide alone twice daily oral): itching had only become milder without disappearing
- pruritus at check-ups every 2 months (uremic pruritus; series 3 case 1, 50 mg nicotinamide after each dialysis treatment): persistent pruritus of a reduced intensity
- itching after 50 days (uremic pruritus; series 3 case 2: renal insufficiency, 50 mg nicotinamide alone twice daily oral): itching had become milder, without totally disappearing
- itching at subsequent periodical checks (uremic pruritus; series 3 case 2, continued 50 mg/day nicotinamide): moderate itching diffused on the whole body

Structure (SMILES): O=C(O)c1cccnc1 [niacin, 3-pyridinecarboxylic acid]
- effectiveness in combating the pruritus forms [1]: not appreciably effective
- adverse side effects at large doses [2]: adverse side effects, including gastrointestinal disturbances (such as abdominal pain and nausea) hepatotoxicity, and, above all, flushing
- side effects of flushing and itching [3]: does not lead to the undesired side effects of flushing and itching
